Reference: article PMC10886162, “Synthesis of Novel Artemisinin, Ciprofloxacin, and Norfloxacin Hybrids with Potent Antiplasmodial Activity” (Antibiotics, 2024)

Columns and labels:
[1] = tested on: CQ-resistant P. falciparum strain FcB1; details: cited from earlier work
[2] = tested on: CQ-resistant P. falciparum FcB1 strain; assay: In vitro growth inhibition of P. falciparum FcB1 ([3H]-hypoxanthine incorporation); assay type: cell-based, Plasmodium falciparum; details: for IC50: Plasmodium falciparum; for Selectivity Index (IC50 AB943/IC50 FcB1): ratio of cytotoxicity IC50 to antiplasmodial IC50 (FcB1)
Method: (§1) The chloroquine-resistant FcB1/Colombia and Dd2/Indochina strains of Plasmodium falciparum were obtained from the Protist Collection of the National Museum of Natural History, Paris, France (n° MNHN-CEU-2016-224-PfFCB1 and MNHN-CEU-2016-222-PfDD2). The parasites were maintained in vitro on human erythrocytes in RPMI 1640 medium supplemented by 8% (v/v) heat-inactivated human serum, at 37 °C, under an atmosphere of 5% CO2. The human red blood cells and serum were provided by the Établissement Français du Sang under the C-CPSL-UNT approval no. 13/EFS/126. The in vitro drug susceptibility assays were measured by [^3H]-hypoxanthine incorporation, as previously described. The drug stock solutions were prepared in DMSO. Briefly, the assays were performed in 96-well plates. The compounds were diluted in the culture medium (100 μL per well). The parasite cultures (100 μL, 2% parasitaemia, and 1% final hematocrit) were then added to each well and incubated for 24 h at 37 °C prior to the addition of 0.5 μCi of [^3H]- hypoxanthine (GE Healthcare, Paris, France, 1 to 5 Ci·mmol/mL) per well. After a further incubation of 24 h, the plates were frozen and thawed. The cell lysates were then collected onto fiberglass filters and counted in a liquid scintillation spectrometer. The growth inhibition for each drug concentration was determined through a comparison of the radioactivity incorporated in the treated culture with that in the control culture maintained on the same plate. The drugs were first evaluated for a range of fixed concentrations of 50, 5, 0.5, 0.05, and 0.005 μg/mL. […] The IC50 value was obtained from the drug concentration–response curve, and the results were expressed in μM or nM as the mean values ± standard deviations determined from several independent experiments. Artesunate (46) was used as an antimalarial drug control.

[3] = tested on: CQ-resistant Dd2 strain of P. falciparum; assay: In vitro growth inhibition of P. falciparum Dd2 ([3H]-hypoxanthine incorporation); assay type: cell-based, Plasmodium falciparum; details: for IC50: Plasmodium falciparum, CQ-resistant Dd2, mean +/− SD of at least three independent experiments; for Selectivity Index (IC50 AB943/IC50 Dd2): ratio of cytotoxicity IC50 to antiplasmodial IC50 (Dd2)
Method: as §1

[4] = tested on: human primary fibroblasts AB943; assay: Cytotoxicity upon human primary fibroblasts AB943 (resazurin); assay type: cell-based; details: Fibroblast, 72 h, mean +/− SD of at least three independent experiments
Method: A cellular cytotoxicity evaluation was performed upon human primary fibroblasts AB943, as previously described. The assays were realized in 96-well plates in DMEM + Glutamax without phenol red medium containing 25 mM HEPES, a pH of 7.3, and 10% of fetal calf serum under a 5% CO2 atmosphere, at 37 °C. After trypsin treatment, the AB943 cells were seeded at 2000 cells per well in 100 μL. After 24 h of incubation, drugs diluted in the culture medium were added (100 μL per well). The drug stock solutions were prepared in dimethyl sulfoxide (DMSO). The final DMSO concentration in the cultures remained below 1%. Control cultures were constituted of cultures treated with DMSO instead of the drug. The cytotoxicity assay was based on the conversion of a redo-sensitive dye (resazurin) to a fluorescent product via viable cells. After 72 h of incubation, the resazurin solution was added in each well at a final concentration of 45 μM. The fluorescence was measured at 530 nm excitation and 590 nm emission wavelengths after 4 h of incubation. The percentage of the inhibition of cell growth was calculated by comparing the fluorescence of cells maintained in the presence of the drug to that in the absence of the drug. The concentration causing 50% growth inhibition (IC50) was obtained from the drug concentration–response curve, and the results were expressed as the mean values ± standard deviations determined from several experiments.

[5] = tested on: P. falciparum parasite strains (3D7, Dd2, and K1); parameters: method as in PMID 31290221; details: range over 3D7, Dd2 and K1 strains; cited from earlier work
3D7 strain = tested on: 3D7 strain; parameters: method as in PMID 30023664; details: cited from earlier work
3D7 P. falciparum strain = tested on: 3D7 P. falciparum strain; parameters: method as in PMID 32676153; details: cited from earlier work
W2 P. falciparum strain = tested on: W2 P. falciparum strain; parameters: method as in PMID 32676153; details: cited from earlier work
[6] = tested on: mammalian and bacterial systems; parameters: method as in PMID 32676153; details: cited from earlier work
[7] = FCB1, CQ-resistant FcB1, mean +/− standard deviation of independent experiments (at least four in Tables 1-2, at least three in Tables 3-4)

SMILES	IC50 [2, 7]	Selectivity Index (IC50 AB943/IC50 FcB1) [2]	IC50 [3]	Selectivity Index (IC50 AB943/IC50 Dd2) [3]	IC50 [4]	EC50 (3D7 strain)	also measured
C[C@@H]1CC[C@H]2[C@@H](C)C(=O)O[C@@H]3O[C@@]4(C)CC[C@@H]1[C@]32OO4 [ART, artemisinin]							IC50 [1]: 55 ± 13.6 nM
C[C@H]1[C@H](OC(=O)CCC(=O)O)O[C@@H]2O[C@@]3(C)CC[C@H]4[C@H](C)CC[C@@H]1[C@@]24OO3 [AS (46), artesunate, reference compound]	18.5 nM	>7042	41.9 nM	>3104	> 130000 nM		IC50 ([2]; FCB1, Table 5, single compound (hybrid or AS alone)): 4.5 nM; EC50 [5]: 5.2 to 14.4 nM
CCN(CC)CCCC(C)Nc1ccnc2cc(Cl)ccc12 (stereo not drawn) [CQ, chloroquine]						9.8 ± 2.8 nM	
C[C@@H]1CCC2[C@@H](C)[C@H](OC(=O)CCC(=O)N3CCN(c4cc5c(cc4F)c(=O)c(C(=O)N4CCN(c6ccnc7cc(Cl)ccc67)CC4)cn5C4CC4)CC3)O[C@@H]3O[C@@]4(C)CCC1[C@@]23OO4 (stereo partly drawn) [Compound 28, (3R,6R,9R,10S,12R,12aR)-3,6,9-trimethyldecahydro-12H-3,12-epoxy[1,2]dioxepino[4,3-i]isochromen-10-yl 4-(4-(3-(4-(7-chloroquinolin-4-yl)piperazine-1-carbonyl)-1-cyclopropyl-6-fluoro-4-oxo-1,4-dihydroquinolin-7-yl)piperazin-1-yl)-4-oxobutanoate]	4.9 nM	4046	12.4 nM	1582	19600 nM		melting point: 157 to 158.2 °C
CCn1cc(C(=O)N2CCN(c3ccnc4cc(Cl)ccc34)CC2)c(=O)c2cc(F)c(N3CCN(C(=O)CCC(=O)O[C@@H]4O[C@@H]5O[C@@]6(C)CCC7[C@H](C)CCC([C@H]4C)[C@]75OO6)CC3)cc21 (stereo partly drawn) [Compound 29, (3R,6R,9R,10S,12R,12aR)-3,6,9-trimethyldecahydro-12H-3,12-epoxy[1,2]dioxepino[4,3-i]isochromen-10-yl 4-(4-(3-(4-(7-chloroquinolin-4-yl)piperazine-1-carbonyl)-1-ethyl-6-fluoro-4-oxo-1,4-dihydroquinolin-7-yl)piperazin-1-yl)-4-oxobutanoate]	5 nM	6027	18.2 nM	1658	30300 nM		melting point: 168.7 to 169.6 °C
C[C@H]1[C@@H](O)O[C@@H]2O[C@@]3(C)CC[C@H]4[C@H](C)CC[C@@H]1[C@@]24OO3 [DHA, dihydroartemisinin]						2.4 ± 0.4 nM	
CC1CCC2C(C)C(OC(=O)CCC(=O)OCCNc3ccc4ncnc(Nc5ccc(Cl)c(Cl)c5)c4c3)OC3OC4(C)CCC1C32OO4 (stereo not drawn) [hybrid 3]						1.4 ± 0.4 nM	
CC1CCC2C(C)C(OC(=O)CCC(=O)OCCNc3ccnc4cc(Cl)ccc34)OC3OC4(C)CCC1C32OO4 (stereo not drawn) [hybrid 4]							EC50 [5]: 1.7 to 4.5 nM
CCOC(=O)c1cn(C2CC2)c2cc(N3CCN(c4ccnc5cc(Cl)ccc45)CC3)c(F)cc2c1=O [hybrid 10]							IC50 (3D7 P. falciparum strain): 63.2 ± 1.2 nM; IC50 (W2 P. falciparum strain): 25.5 ± 4.45 nM; toxicity to mammalian and bacterial systems [6]: nontoxic
